Measured values as given in patent US20250090482A1, “COMPOSITIONS AND METHODS FOR THE TREATMENT OF DEPRESSION” (Janssen Pharmaceuticals, Inc., priority 2022, published 2025).
“And” between values parts separate entries of the source, which are not always exact repeats. Identical values can stand only once.

Tests used:
[1] = test system: TRD patients, 3MM biomarker signature positive or negative; test: 3MM biomarker signature analysis of MADRS treatment effect across esketamine TRD trials; assay type: in vivo, human; conditions: for treatment effect, improvement over placebo: end of double blind treatment
Experimental: (§1) Samples of venous blood were obtained from patients and healthy control subjects from subject described in Example 1 and from the other clinical trials referenced herein. Serum or plasma was prepared from the samples of venous blood. Measurements of human CRP and IL-6-R were performed in serum using an MSD Sector 6000 with the kits #K151STD and K151ALC (MesoScale Discovery, Rockville, MD). Human TNFα was quantified in serum using a Simoa HD-1 analyzer with kit #143 (Quanterix, Lexington, MA). All measures were performed according to kit manufacturer's recommendations.
(§2) As used in the following biomarker assay analysis, treatment (TRT) refers to treatment with intranasal esketamine plus optionally an oral antidepressant and placebo (PBO) refers to treatment with a placebo plus optionally an oral antidepressant.
(§3) The following biomarker signatures were employed: • 3MM: Inflammatory biomarker signature with positive status defined by CRP>3 mg/L and (TNFα>[…] or sIL6R>25 ng/mL). • 2MM: Inflammatory biomarker signature with positive status defined by CRP>3 mg/L and sIL6R>25 ng/mL. • CRP: Inflammatory biomarker signature with positive status defined by CRP>3 mg/L/
(§4) The 3MM signature was tested in clinical trials for adjunctive MDD, including treatment-resistant MDD (TRD) and MDD with suicidal ideation (SUI). […] Significant was driven by Esketamine (ESK) TRD trials.

[2] = test system: MDD with suicidal ideation (SUI); test: 3MM biomarker signature analysis in esketamine trials with suicidal ideation (SUI); assay type: in vivo, human
Experimental: as §1, §2, §3, §4

Question: How did the “treatment effect, improvement over placebo” value ([1]; 3MM biomarker signature negative subjects) turn out when `CN[C@]1(c2ccccc2Cl)CCCCC1=O` [esketamine, (S)-2-(2-chlorophenyl)-2-(methylamino)cyclohexanone] was run?
Answer: 2 MADRS points and 2.0 MADRS points

Question: What about the “treatment effect, improvement over placebo” value ([1]; 3MM biomarker signature positive subjects) of the same compound?
Answer: 7.8 MADRS points

Question: And the “difference between subtypes (Signature advantage)” value ([1]; 3MM positive minus negative)?
Answer: 5.8 point

Question: What about the “prediction of treatment effect by 3MM status at baseline” value [2] of the same compound?
Answer: did not predict treatment effect
